Assay results: US9795137B2, “Metalaxyl and prothioconazole cocrystals and methods of making and using” (Bayer CropScience LP, priority 2012, dated 2017)
≈ marks a conversion by molar mass, not a printed value. Like-named read-outs stand apart in the source and are kept apart here.

Legend:
[1] = Water solubility of saturated solutions at pH 7.0, measured by HPLC; settings: metalaxyl and prothioconazole as separate compounds (0.2 g each in one bottle), 10 mL pH 7.0 buffer, stirred about 12 hours at 20° C.±1° C.
Protocol: A saturated solution of metalaxyl and prothioconazole as separate compounds was prepared by the following procedure: 0.2 grams each of metalaxyl and prothioconazole were weighed and placed into a 0.5 oz bottle. 10 mL of pH 7.0 (Fisher #SB107-500) was added to the bottle. A magnetic stir bar was added to the bottle and the bottle was capped and shaken. The bottle was placed on a magnetic stirrer for about 12 hours at a temperature of 20° C.±1° C. stirring on low.
10 mL of pH 7.0 (Fisher #SB107-500) was added to the bottle. A magnetic stir bar was added to the bottle and the bottle was capped and shaken. The bottle was placed on a magnetic stirrer for about 12 hours in a room at 20° C.±1° C., stirring on low.

[2] = water solubility measurements at pH 7.0 in an aspect, cited from earlier work

Row | SMILES | solubility at pH 7.0 [1] [%] | water solubility ([2]; at 22° C.) | water solubility ([2]; at 25° C.) [µg/mL]
1 | COCC(=O)N(c1c(C)cccc1C)C(C)C(=O)OC (racemic) [metalaxyl, N-(2,6-dimethylphenyl)-N-(methoxyacetyl)-DL-alanine methyl ester] | 0.62 | about 8.4 g/l | –
2 | OC(Cc1ccccc1Cl)(Cn1nc[nH]c1=S)C1(Cl)CC1 (stereo not shown) [prothioconazole, 2-[2-(1-chlorocyclopropyl)-3-(2-chlorophenyl)-2-hydroxypropyl]-1,2-dihydro-3H-1,2,4-triazole-3-thione] | 0.0002 | – | 0.61 (≈ 1.77 µM)
